We go through one substance from publication PMC7822861, “A functional family of fluorescent nucleotide analogues to investigate actin dynamics and energetics” (Nature Communications, 2021).

This test concerns the target T1, actin (G-actin, rabbit muscle) (Oryctolagus cuniculus, UniProt P68135).
T1 construct: gene ACTA1; rabbit muscle actin monomer; with mouse twinfilin C-terminal ADF-H domain (residues 176–316), in the crystal only
Description: co-crystal structure ([…] Å); fluorescence anisotropy association/dissociation kinetics. Format: binding.

Consider ATP-ATTO-488, for which the k- result is “~ (1 ± 0.4) × 10^−3 (k−) s^−1”.
